Data on one molecule can be found in ChEMBL document CHEMBL4619828, “Discovery of Potent and Orally Bioavailable Small Molecule Antagonists of Toll-like Receptors 7/8/9 (TLR7/8/9)” (ACS Med Chem Lett, 2020).

pIC50: −log10 of the molar value.

As a reminder, the pIC50 is −log10 of the IC50, conventionally taken in molar units. The term Cmax denotes the maximum level reached in the sampled fluid or tissue. As a reminder, the bioavailability is the share of a dose that reaches the circulation, judged against a reference dose that is usually intravenous. A lower bioavailability goes with little systemic uptake.

For data set [1], the target named is T1, Toll-like receptor 9 (Homo sapiens, UniProt Q9NR96).
T1 sequence (Q9NR96 whole entry): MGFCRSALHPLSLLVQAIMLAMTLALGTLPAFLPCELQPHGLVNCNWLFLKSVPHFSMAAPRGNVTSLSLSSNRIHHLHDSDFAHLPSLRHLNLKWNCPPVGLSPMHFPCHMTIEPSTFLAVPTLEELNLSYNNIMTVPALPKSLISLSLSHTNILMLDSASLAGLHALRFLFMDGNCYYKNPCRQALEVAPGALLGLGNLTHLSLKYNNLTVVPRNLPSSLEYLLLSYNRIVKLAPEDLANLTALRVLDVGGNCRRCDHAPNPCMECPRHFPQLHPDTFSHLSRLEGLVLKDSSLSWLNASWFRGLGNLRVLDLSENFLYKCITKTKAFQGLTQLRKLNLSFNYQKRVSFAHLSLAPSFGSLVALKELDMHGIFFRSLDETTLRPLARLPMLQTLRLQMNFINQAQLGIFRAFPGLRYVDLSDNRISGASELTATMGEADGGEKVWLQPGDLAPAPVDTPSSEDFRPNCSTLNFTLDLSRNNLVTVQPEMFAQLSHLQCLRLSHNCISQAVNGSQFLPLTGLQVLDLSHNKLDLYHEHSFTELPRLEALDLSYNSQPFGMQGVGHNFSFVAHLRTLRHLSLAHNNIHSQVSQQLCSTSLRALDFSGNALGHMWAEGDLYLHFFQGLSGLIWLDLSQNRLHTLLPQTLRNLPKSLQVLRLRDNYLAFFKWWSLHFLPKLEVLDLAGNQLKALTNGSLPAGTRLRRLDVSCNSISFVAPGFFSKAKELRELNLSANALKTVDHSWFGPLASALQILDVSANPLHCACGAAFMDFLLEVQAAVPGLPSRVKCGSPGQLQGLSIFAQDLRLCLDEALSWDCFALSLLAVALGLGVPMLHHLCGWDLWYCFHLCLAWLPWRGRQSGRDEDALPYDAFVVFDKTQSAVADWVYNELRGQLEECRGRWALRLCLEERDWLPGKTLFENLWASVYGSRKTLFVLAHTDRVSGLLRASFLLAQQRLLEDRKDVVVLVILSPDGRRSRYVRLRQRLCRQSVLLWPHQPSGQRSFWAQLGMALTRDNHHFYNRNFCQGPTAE
The experiment in a line: Antagonist activity at human TLR9 overexpressed in HEK-Blue cells assessed as inhibition of ODN2006-induced NFkappaB and AP-1 activation preincubated for 30 mins followed by ODN2006 stimulation measured after 22 hrs by quanti-blue SEAP assay. Type of data set: cell-based.

A further data set addresses T2, Toll-like receptor 3 (Homo sapiens, UniProt O15455).
T2 sequence (O15455 whole entry): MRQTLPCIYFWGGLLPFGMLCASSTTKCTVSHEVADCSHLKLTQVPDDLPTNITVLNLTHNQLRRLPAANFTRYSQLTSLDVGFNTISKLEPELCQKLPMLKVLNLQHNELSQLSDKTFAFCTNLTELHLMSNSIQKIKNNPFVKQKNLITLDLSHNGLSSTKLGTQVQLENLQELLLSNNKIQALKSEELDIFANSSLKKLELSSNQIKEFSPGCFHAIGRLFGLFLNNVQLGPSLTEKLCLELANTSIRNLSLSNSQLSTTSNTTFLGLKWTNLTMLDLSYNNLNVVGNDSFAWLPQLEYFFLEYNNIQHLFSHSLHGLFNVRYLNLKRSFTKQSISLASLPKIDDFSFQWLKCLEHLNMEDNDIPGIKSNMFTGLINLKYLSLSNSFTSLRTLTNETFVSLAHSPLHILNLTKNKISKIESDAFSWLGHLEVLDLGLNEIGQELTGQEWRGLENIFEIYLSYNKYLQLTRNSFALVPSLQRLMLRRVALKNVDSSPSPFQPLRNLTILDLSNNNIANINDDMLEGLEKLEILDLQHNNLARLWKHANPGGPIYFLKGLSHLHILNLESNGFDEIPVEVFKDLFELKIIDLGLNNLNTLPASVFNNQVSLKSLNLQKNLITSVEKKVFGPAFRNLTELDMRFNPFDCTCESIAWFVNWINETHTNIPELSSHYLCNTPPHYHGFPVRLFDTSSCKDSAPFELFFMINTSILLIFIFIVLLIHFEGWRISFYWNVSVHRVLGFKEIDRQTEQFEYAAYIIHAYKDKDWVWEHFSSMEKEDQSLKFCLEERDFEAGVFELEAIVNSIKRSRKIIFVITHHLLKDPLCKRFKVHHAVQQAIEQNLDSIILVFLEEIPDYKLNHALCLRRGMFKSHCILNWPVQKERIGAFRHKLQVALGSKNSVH
The experiment in a line: Antagonist activity at human TLR3 overexpressed in HEK-Blue cells assessed as inhibition of Poly IC-induced NFkappaB and AP-1 activation preincubated for 30 mins followed by Poly IC stimulation measured after 22 hrs by quanti-blue SEAP assay. The class given is cell-based.

Data set [2] concerns the target T1, Toll-like receptor 9. Put plainly: Antagonist activity at TLR9 (unknown origin) in PBMC cells assessed as reduction of IL-6 production. Type of data set: cell-based.
Data set [3] can be described thus: Cmax in mouse at 15 mg/kg, po. The arrangement: dose 15 mg/kg, route oral. The following applies: in vivo. The class given is ADME, organism-based.
Data set [4] can be described thus: Volume of distribution in steady state in mouse at 3 mg/kg, iv. The class given is ADME, organism-based. The conditions noted are these: in vivo, read-out: Vdss.
Data set [5] is described as follows: Oral bioavailability in mouse at 15 mg/kg. The class given is ADME, organism-based. The following applies: in vivo.

With `CNCCN1CCC(c2ccc3[nH]c(-c4ccc(OC)c(OC)c4)c(C(C)C)c3c2)CC1`, the pIC50 on Toll-like receptor 9 [1] is 6.15; at Toll-like receptor 3 it was 5.26; on Toll-like receptor 9 [2], 6.29. Besides, in data set [3], the Cmax turned out to be 1630 nM. Further, in data set [4], the Vd was found to be 20 L/kg. Further, the bioavailability in data set [5] came to 62%.
